Measured values as given in US20080058284A1, “Pharmaceutical compositions of semicarbazones and/or thiosemicarbazones and/or their derivatives and products of these compositions and their uses as anticonvulsant, anti-nociceptive and anti-inflammatory agents, and in the angiogenic therapy” (UNIVERSIDALE FEDERAL DE MINAS GERAIS, priority 2002, published 2008).

What was measured:
[1] = system: carrageenan-induced edema in rats; experiment: Carrageenan-induced edema; assay type: in vivo, rat; settings: 10, 25 or 50 mg/kg i.p., -1 h
Experimental: To evaluate if a coupound presents antiedematogenic activity, the model of carrageenan-induced edema in rats was used. In this model, before the administration of any drug, the right hindpaw volume is determined with a plethysmomether. After the division of the groups, carrageenan (1%, 50 μL) is injected into the plantar surface. At different times after the injection of carrageenan, the paw volume is determined again. This inflammatory stimulus induces a marked edema that is inhibited by different anti-inflammatory drugs (steroid and non-steroid), inhibitors of nitric oxide synthesis and antagonists of histamine, 5-hydroxytryptamine and bradykinin, inhibitors of nitric oxide syntheses, etc.
To evaluate if BS presents antiedematogenic activity, the model of carrageenan-induced edema in rats was used. In this model, before the administration of any drug, the right hindpaw volume is determined with a plethysmomether. After the division of the groups, carrageenan (1%, 50 μl) is injected into the plantar surface. At different times after the injection of carrageenan, the paw volume is determined again.

[2] = system: Wistar Audiogenic Rats (WAR) with audiogenic seizures; experiment: Audiogenic seizures (AS) in Wistar Audiogenic Rats, blockade of tonic component; assay type: in vivo, rat
From the text: Comparison of the Anticonvulsant Effect of Free Benzaldehyde Semicarbazone (BS) and the HP-β-CD/BS Pharmaceutical Composition in Wistar Audiogenic Rats (WAR) with Audiogenic Seizures (AS). Typically WARs Present Running Fits, Jumping, Atonic Falling Followed by Tonic-Clonic Seizures and Clonic Spasms when Submitted to High Intensity Sound Stimulus (120 dB SPL)
(§1) Female Wistar Audiogenic Rats (WARs) from our own inbred colony, maintained at the animal facilities of the Physiology Department of Federal University of Minas Gerais, Brazil, weighing 250-300 g, were used. They were kept at 24° C., in groups of 5 per cage receiving chow pellets and water ad libitum. The light/dark cycle was 12 h:12 h, with lights on at 7:00 am and lights off at 7:00 pm. Efforts were made in order to avoid any unnecessary distress to the animals, in accordance to the Guidelines for Animal Experimentation of Federal University of Minas Gerais, Brazil.
Audiogenic seizures (AS) were induced by a sound stimulus (120 dB) delivered into an acoustic chamber through a loud speaker, until tonic seizures appeared, or during a maximum of 1 minute. Behavior was evaluated by a severity index (SI) ranging from SI=0.0 to SI=1.0 (maximum).
Typically WARs present running fits, jumping and atonic falling followed by tonic-clonic seizures and clonic spasms (SI≧0.85). Animals were stimulated three times, once every three days before the beginning of experiments, in order to screen them for seizure severity (control recording). Seven days after the third stimulation they were used in the experiments. To evaluate the effect of decreasing on AS severity, it was taken as criteria the blockade of the tonic component of seizure, which means to obtain SI<0.61.

[3] = system: nociceptive response induced by formaldehyde in mice; experiment: Licking behavior induced by formaldehyde; assay type: in vivo
Experimental: In the first model, licking behaviour induced by formaldehyde (0.92%, 20 μL), the inflammatory stimulus is injected into the dorsum of the right hindpaw of mice. Immediately after the injection, the animals present a nociceptive behaviour characterized by licking and biting the injected paw. The licking time is determined between 0 and 5 min and 15 and 30 min after formaldehyde injection. The first phase results from direct activations of primary afferent fibers and is inhibited mainly by centrally acting drugs such as the opioid analgesics. The second phase is associated with the development of an inflammatory response and facilitation of synaptic transmission in the spinal cord.
In the model of licking behavior induced by formaldehyde, the inflammatory stimulus (0.92%, 20 μL) is injected into the dorsum of the right hindpaw of mice. Immediately after the injection, the animals present a nociceptive behaviour characterized by licking and biting the injected paw. The licking time is determined between 0 and 5 min (first phase) and 15 and 30 min (second phase) after formaldehyde injection. The first phase of the nociceptive response induced by formaldehyde in mice was inhibited by the highest dose of BS (50 mg/kg, i.p.).

[4] = system: angiogenesis induced by sponge implant in Swiss mice; experiment: Angiogenesis induced by sponge implant, hemoglobin content (vascular index); assay type: in vivo; settings: for reduction in the hemoglobin content of implants: vs vehicle-treated group
Experimental: The experiments were performed in male, Swiss mice (20-30 g; 12 weeks old) from the Animal House of the Institute of Biological Sciences, Federal University of Minas Gerais. Polyether-polyurethane sponge discs 5 mm thickness and 10 mm diameter with central cannula, used as a framework to induce fibrovascular tissue growth, were introduced through a skin incision in the back of mice anesthetized with 2,2,2-tribromoethanol ([…]) [Machado, R. D. P., Santos, R. A. S., Andrade, S. P., Life Sciences 66, 67, 2000]. The animals were housed individually and provided with normal food and water. Housing and anesthesia concurred with the guidelines established by our local Institutional Animal Welfare Committee.
Four more doses were given in the subsequent days. The animals were killed by cervical dislocation 9 days after implantation. The implants were removed and processed for hemoglobin determination (vascular index) using a modified Drabkin's method [Plunkett, M. L., Haley, J. A., Lab. Invest. […] One group of animals received injection of vehicle.

[5] = system: nociceptive response of mice on hot-plate (57° C.); experiment: Hot-plate model; assay type: in vivo; settings: 10, 25 or 50 mg/kg i.p., -1 h
Experimental: (§2) In the hot-plate model, the mice are placed over a hot-plate (57° C.). The latency to jump or lick the paws is determined. In this model, direct and immediate activation of peripheral afferent fibbers occurs. Thus, drugs that act mainly in the central nervous system inhibit the nociceptive response in this model.
as §2, with “fibers” for “fibbers”

[6] = system: thermal allodynia induced by carrageenan in Wistar male rats; experiment: Thermal allodynia induced by carrageenan; assay type: in vivo, rat; settings: only at 50 mg/kg i.p., -1 h (10, 25, 50 mg/kg tested)
Experimental: (§3) In the model of thermal allodynia, the right hindpaw withdrawal latency to a thermal stimulus (Hargreaves apparatus—Ugo Basile, Italy) is determined in rats before the administration of any drug. The intensity of the thermal stimulus is adjusted to induce a basal latency about 12 s. After the basal lecture, carrageenan (1%, 50 μL) is injected into the right hindpaw. This inflammatory stimulus reduces the latency for paw withdrawal induced by the thermal stimulus, which is characterized as thermal allodynia.
as §3, with “μl)” for “μL)”

[7] = system: Wistar normal rats with electroshock induced seizures; experiment: Maximum electroshock screening (MES), blockade of hindlimb extension; assay type: in vivo, rat
Experimental: Comparison of the Anticonvulsant Effect of Free Benzaldehyde Semicarbazone (BS) and the BS/HP-β-CD and BS/β-CD Pharmaceutical Compositions in Wistar Normal Rats with Electroshock Induced Seizures (Maximum Electroshock Screening, MES)
as §1, with “Wistar” for “Female Wistar”, “rats” for “Audiogenic Rats (WARs)”, “the main breeding stock of the Institute of Biological Sciences, Federal University of Minas Gerais, Brazil,” for “our own inbred colony,”, “Department,” for “Department of Federal University of Minas Gerais, Brazil,”
Electroshock seizures were induced by electric stimulus, produced by an ELEKTROSCHOCKGERAT apparatus (Karl Kolbe, Scientific Technical Supplies, Frankfurt, Germany) using a current of 70 mA, 60 Hz, during 1 second through a pair of ear clip electrodes.
The behavioral evaluation was carried out by analyzing the tonic component in a four points scale as follows: 0=no seizure; 1=forelimb extension without hind limb extension; 2=complete forelimb extension and partial hind limb extension; 3=complete hind limb extension, which stays parallel to the tail. To evaluate the effect of decreasing on electroshock induced seizures severity, it was taken as criteria the blockade of complete fore- and hind limb extension (score≦1).

motor activity of mice = experiment: Motor activity in rota-rod apparatus; assay type: in vivo; settings: 10, 25 or 50 mg/kg i.p.; 30 min after injection; 14 rpm, cut-off 1 min
Experimental: The effect of BS on the motor activity of mice was evaluated in order to investigate if inhibition of the nociceptive behavior in animals treated with BS would not be the result of a central depressor effect. The motor activity was evaluated in a rota-rod apparatus. During the experiment, the mice were placed on the rota-rod (14 rpm) and the time they spent in the apparatus was determined. The cut-off time was 1 min. After the basal lecture, the animals were treated with BS (10, 25 or 50 mg/kg, intraperitoneal; i.p.). The vehicle used was 25% dimethylsulphoxide (DMSO)+10% tween 80 in saline. Thirty minutes after the injection, the time spent in the rota-rod was determined again.

Compound | carrageenan-induced edema (paw volume) [1] | animals with tonic component of seizures blocked ([2]; 50 mg/Kg ip) [%] | animals with tonic component of seizures blocked ([2]; 75 mg/Kg ip) [%] | animals with tonic component of seizures blocked ([2]; 100 mg/Kg ip) [%] | minimum dose necessary to produce anticonvulsant activity ([2]; vo and ip) [mg/kg] | second phase of the nociceptive response (licking time 15-30 min) ([3]; all doses: 10, 25 and 50 mg/kg i.p., -1 h) | first phase of the nociceptive response (licking time 0-5 min) ([3]; highest dose, 50 mg/kg i.p.) | reduction in the hemoglobin content of implants ([4]; 0.05 mg/kg ip, 9 days after implantation) | reduction in the hemoglobin content of implants ([4]; the other doses (0.25, 0.5 and 2.5 mg/kg ip)) | anti-nociceptive effect (latency to jump or lick the paws) [5] | nociceptive response in thermal allodynia (paw withdrawal latency) [6] | animals with hindlimb extension blocked ([7]; 100 mg/Kg ip and vo, males) | animals in which active, 240 minutes after administration ([7]; 240 minutes after administration (vo)) | minimum dose necessary to produce anticonvulsant activity ([7]; ip) [mg/kg] | minimum dose necessary to produce anticonvulsant activity ([7]; vo) [mg/kg] | time spent in the rota-rod (motor activity of mice) | increase in hemoglobin content of implants ([4]; 0.25 mg/kg, relative to the control group) | increase of hemoglobin content (vascular index), summary statement ([4]; dose not stated)
NC(=O)NN=Cc1ccccc1 [BS, benzaldehyde semicarbazone] | inhibited the carrageenan-induced edema | 33 | 50 | 83 | 100 | markedly inhibited | inhibited | unable to reduce the hemoglobin content | more than 50% | did not exhibit anti-nociceptive effect | statistically inhibited | about 90% | no activity | 100 | 100 | did not reduce the time spent in the rota-rod |  | 
bromobenzaldehyde semicarbazone [BrBs] |  |  |  |  |  |  |  |  |  |  |  |  |  |  |  |  | about 30% | more than 30%
